# Source: US6090787A, “Antithrombotic agents” (Eli Lilly and Company, priority 1999, dated 2000)
# Square brackets hold non-standard residues; d marks the D form. Peptide text beside a SMILES is read from it. dPip = O=C(O)[C@H]1CCCCN1; Sar = CNCC(=O)O
# Key:
# [1] = target: T1, human thrombin (Homo sapiens, UniProt P00734); assay: Inhibition of amidase activity of thrombin (Kass), chromogenic substrate; format: biochemical; details: apparent association constant, mean over a range of concentrations
# T1 construct: purified human thrombin, Enzyme Research Laboratories; purchased Enzyme Research Laboratories, South Bend, Indiana
# In short: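 Bovine or human thrombin in 0.03 M Tris, 0.15 M NaCl, pH 7.4, with compound in 50% aqueous methanol and chromogenic substrate (0.25 mg/mL solution); hydrolysis followed at 405 nm (p-nitroaniline). Free thrombin read from standard curves, bound and free inhibitor derived; Kass is mean equilibrium constant over a compound concentration range, in L/mol.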
# [2] = target: T2, factor Xa (Homo sapiens, UniProt P00742); assay: Serine protease selectivity, Kass, factor Xa chromogenic assay; format: biochemical; details: apparent association constant
# T2 construct: Human factors X, Xa, IXa, XIa, and XIIa are purchased from Enzyme Research Laboratories; purchased Enzyme Research Laboratories, South Bend, Ind
# T2 sequence (P00742 235-488 limits assumed): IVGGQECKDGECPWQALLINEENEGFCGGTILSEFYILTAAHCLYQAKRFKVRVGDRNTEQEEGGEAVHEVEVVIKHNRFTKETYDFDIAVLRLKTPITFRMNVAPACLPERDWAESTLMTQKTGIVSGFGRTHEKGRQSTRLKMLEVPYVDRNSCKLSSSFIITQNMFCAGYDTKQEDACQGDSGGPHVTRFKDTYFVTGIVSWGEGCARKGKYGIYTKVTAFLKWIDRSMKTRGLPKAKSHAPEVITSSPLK
# T2 sequence (P00742 41-179 partner limits assumed): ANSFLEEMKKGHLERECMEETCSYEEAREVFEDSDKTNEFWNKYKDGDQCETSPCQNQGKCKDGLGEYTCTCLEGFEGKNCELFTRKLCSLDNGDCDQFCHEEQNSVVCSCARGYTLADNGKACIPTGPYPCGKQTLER
# In short: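 Run as the human thrombin chromogenic assay. Human factor Xa used N-Benzoyl-Ile-Glu-Gly-Arg-p-nitroanilide as substrate. Bovine trypsin used N-Benzoyl-Phe-Val-Arg-p-nitroanilide.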
# [3] = target: T3, Human plasmin (Homo sapiens, UniProt P00747); assay: Fibrinolytic protease selectivity, Kass, plasmin chromogenic assay; format: biochemical; details: apparent association constant
# T3 construct: Human plasmin is purchased from Boehringer Mannheim; purchased Boehringer Mannheim, Indianapolis, Indiana
# T3 sequence (P00747 581-810 limits assumed): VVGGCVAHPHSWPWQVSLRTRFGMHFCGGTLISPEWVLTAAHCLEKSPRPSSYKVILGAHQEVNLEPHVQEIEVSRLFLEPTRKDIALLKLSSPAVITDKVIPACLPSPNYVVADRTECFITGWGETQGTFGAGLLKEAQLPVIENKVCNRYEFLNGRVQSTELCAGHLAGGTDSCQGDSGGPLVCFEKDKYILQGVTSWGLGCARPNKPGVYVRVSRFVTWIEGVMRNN
# T3 sequence (P00747 97-580 partner limits assumed): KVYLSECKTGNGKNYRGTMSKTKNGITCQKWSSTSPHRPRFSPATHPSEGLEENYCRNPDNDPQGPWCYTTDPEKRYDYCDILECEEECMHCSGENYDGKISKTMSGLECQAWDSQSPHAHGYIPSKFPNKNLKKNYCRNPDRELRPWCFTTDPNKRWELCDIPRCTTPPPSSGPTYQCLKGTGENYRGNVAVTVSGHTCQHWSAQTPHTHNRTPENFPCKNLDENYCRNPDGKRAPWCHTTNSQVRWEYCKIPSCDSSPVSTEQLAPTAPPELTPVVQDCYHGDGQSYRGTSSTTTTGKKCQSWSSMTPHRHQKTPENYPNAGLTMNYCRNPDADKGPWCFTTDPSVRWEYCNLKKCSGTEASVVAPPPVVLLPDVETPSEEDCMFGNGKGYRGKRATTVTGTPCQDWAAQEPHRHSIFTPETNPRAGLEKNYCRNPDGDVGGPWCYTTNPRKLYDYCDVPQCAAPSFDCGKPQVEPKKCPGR
# In short: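 Carried out like the human thrombin procedure, with chromogenic substrates H-D-Ile-Pro-Arg-p-nitroanilide for t-PA (single chain nt-PA or mt-PA6) and H-D-Val-Leu-Lys-p-nitroanilide for human plasmin. Inhibition of amidase activity gives association constants.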
# [4] = Index of bioavailability (% Relative Activity from plasma TT AUC, oral vs i.v.); format: in vivo; details: dose-adjusted AUC of plasma TT time course, p.o. vs i.v. bolus
# Procedure: Plasma thrombin time (TT) and activated partial thromboplastin time (APTT) are measured with a fibrometer. Blood is sampled from a jugular catheter and collected in syringe containing sodium citrate (3.8%, 1 part to 9 parts blood). […] Parke Davis) at 37° C. For APTT, plasma (0.1 mL) and APTT solution (0.1 mL, Organon Teknika) are incubated for 5 minutes (37° C.) and CaCl2 (0.01 mL, 0.025 M) is added to start coagulation. Assays are done in duplicate and averaged. A measure of bioactivity, plasma thrombin time (TT), served as a substitute for the assay of parent compound on the assumption that increments in TT resulted from thrombin inhibition by parent only. The time course of the effect of the thrombin inhibitor upon TT is determined after i.v. bolus administration to anesthetized rats and after oral treatment of fasted conscious rats. Due to limitations of blood volume and the number of points required to determine the time course from time of treatment to the time when the response returned to pretreatment values, two populations of rats are used. Each sample population represented alternating sequential time points. The average TT over the time course is used to calculate area under the curve (AUC). The index of bioavailability is calculated by the formula shown below and is expressed as percent relative activity. The area under the curve (AUC) of the plasma TT time course is determined and adjusted for the dose. This index of bioavailability is termed "% Relative Activity" and is calculated as [formula] Compound solutions are prepared fresh daily in normal saline and are injected as a bolus or are infused starting 15 minutes before and continuing throughout the experimental perturbation which is 15 minutes in the arteriovenous shunt model and 60 minutes in the FeCl3 model of arterial injury and in the spontaneous thombosis model. Bolus injection volume is 1 mL/kg for i.v., and 5 mL/kg for p.o. and infusion volume is 3 mL/hr.
SMILES,Enzyme Kass Human Thrombin [1] [L/mol × 10^6],Enzyme Kass Xa [2] [L/mol × 10^6],Enzyme Kass Plasmin [3] [L/mol × 10^6],% oral/i.v. activity (Rat) [4] [%]
"Cl.Cl.N=C(N)NCCC[C@@H](C=O)NC(=O)CN(CCc1ccccc1)C(=O)[C@H]1CCCCN1 [Example 8, D-homoprolyl-N-(2-phenylethyl)glycyl-L-argininal dihydrochloride]",87,4.4,0.44,17
"CN(CC(=O)N[C@H](C=O)CCCNC(=N)N)C(=O)[C@H]1CCCCN1.Cl.Cl [Example 1, D-homoprolyl-N-methylglycyl-L-argininal dihydrochloride] (H-[dPip]-[Sar]-Arg-aldehyde)",22,0.13,0.031,37
"CC(C)CCN(CC(=O)N[C@H](C=O)CCCN=C(N)N)C(=O)[C@H]1CCCCN1.Cl.Cl [Example 6, D--hPro--N(isoamyl)Gly--ArgH.2HCl]",16,0.071,0.059,22
